Measured values: US8143216B2, “Modified human growth hormone” (Ambrx, Inc., priority 2004, dated 2012)
Blank lines part the entries; values can stand above or below the molecule they belong to.

Columns and labels:
[1] = biological target: T1, human growth hormone receptor on IM-9 cells (Homo sapiens, UniProt P10912); test: IM-9 pSTAT5 bioassay (STAT5 phosphorylation in IM-9 cells); type: cell-based; conditions: for EC50: IM-9, WHO hGH is expressed as unity
T1 construct: host or cells: human IM-9 lymphocyte cell line
T1 sequence (P10912 19-638): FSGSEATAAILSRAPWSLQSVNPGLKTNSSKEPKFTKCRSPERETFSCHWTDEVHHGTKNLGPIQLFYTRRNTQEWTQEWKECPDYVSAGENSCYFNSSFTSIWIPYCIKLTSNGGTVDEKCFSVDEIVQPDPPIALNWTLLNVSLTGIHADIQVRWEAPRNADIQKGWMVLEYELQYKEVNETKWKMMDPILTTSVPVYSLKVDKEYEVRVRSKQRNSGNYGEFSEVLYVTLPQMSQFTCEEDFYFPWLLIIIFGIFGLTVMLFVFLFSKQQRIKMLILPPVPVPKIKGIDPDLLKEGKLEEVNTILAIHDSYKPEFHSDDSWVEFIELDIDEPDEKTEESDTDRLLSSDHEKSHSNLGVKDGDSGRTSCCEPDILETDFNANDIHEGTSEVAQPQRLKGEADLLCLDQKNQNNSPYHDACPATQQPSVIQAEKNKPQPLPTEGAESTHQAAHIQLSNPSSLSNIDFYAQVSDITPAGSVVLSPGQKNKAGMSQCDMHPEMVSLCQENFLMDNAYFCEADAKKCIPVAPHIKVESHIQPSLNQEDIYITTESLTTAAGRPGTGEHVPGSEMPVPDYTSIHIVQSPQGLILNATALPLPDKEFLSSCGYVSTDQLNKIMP
Source text: To further assess the biological activity of modified hGH polypeptides, an assay measuring a downstream marker of hGH's interaction with its receptor was used. The interaction of hGH with its endogenously produced receptor leads to the tyrosine phosphorylation of a signal transducer and activator of transcription family member, STAT5, in the human IM-9 lymphocyte cell line. Two forms of STAT5, STAT5A and STAT5B were identified from an IM-9 cDNA library. See, e.g., Silva et al., Mol. Endocrinol. (1996) 10(5):508-518.
IM-9 cells were stimulated with hGH polypeptides of the present invention. The human IM-9 lymphocytes were purchased from ATCC (Manassas, Va.) and grown in RPMI 1640 supplemented with sodium pyruvate, penicillin, streptomycin (Invitrogen, Carlsbad, San Diego) and 10% heat inactivated fetal calf serum (Hyclone, Logan, Utah). The IM-9 cells were starved overnight in assay media (phenol-red free RPMI, 10 mM Hepes, 1% heat inactivated charcoal/dextran treated FBS, sodium pyruvate, penicillin and streptomycin) before stimulation with a 12-point dose range of hGH polypeptides for 10 min at 37° C. Stimulated cells were fixed with 1% formaldehyde before permeabilization with 90% ice-cold methanol for 1 hour on ice. The level of STAT5 phosphorylation was detected by intra-cellular staining with a primary phospho-STAT5 antibody (Cell Signaling Technology, Beverly, Mass.) at room temperature for 30 min followed by a PE-conjugated secondary antibody. Sample acquisition was performed on the FACS Array with acquired data analyzed on the Flowjo software (Tree Star Inc., Ashland, Oreg.). EC50 values were derived from dose response curves plotted with mean fluorescent intensity (MFI) against protein concentration utilizing SigmaPlot.
The interaction of hGH with its receptor leads to the tyrosine phosphorylation of a signal transducer and activator of transcription family member, STAT5, in the human IM-9 lymphocyte cell line.

[2] = tested on: rat GHR (L43R) expressing BAF3 cell line, 2E2-2B12-F4; test: Proliferation by BrdU labeling; type: cell-based, mouse; conditions: WHO hGH is expressed as unity
Protocol: All cell cultures were maintained at 37° C. in a humidified atmosphere of 5% CO2.

[3] = tested on: rat model of growth hormone deficiency (hypophysectomized rats); test: Efficacy studies of PEGylated hGH in a rat model of growth hormone deficiency (Example 34); type: in vivo
Protocol: Preclinical efficacy studies were conducted in a rat model of growth hormone deficiency. In this model, the pituitary gland was surgically removed at approximately 4 weeks of age. The body weights of these hypophysectomized rats were monitored after surgery and animals showing less than 7.5 grams of bodyweight gain over a period of 7 days before the study were deemed successfully hypophysectomized and were randomized amongst the treatment groups. Animals showing more than 2.5 g of weight-loss were deemed not healthy and were excluded from the study. The study was initiated approximately 3 weeks after the surgery.
Animals were dosed weekly (i.e. dosed on days 0 and 7) with either placebo or increasing PEG-^ahGH dose. An additional treatment group received Genotropin or placebo daily. Bodyweights and blood were collected predose and daily. All animals were sacrificed on day 14.
For this parameter, the AUC is expressed as AUC above the efficacious IGF-1 plasma level. […] In the current study, the baseline IGF-1 level determined from the placebo group throughout the study was 128 ng/mL. An increase of 34 ng/mL over 128 ng/mL estimates an efficacious IGF-1 level of 162 ng/mL. Thus the AUC above 162 ng/mL was integrated. From this analysis, a dose-dependent increase in AUC above efficacious level was observed after each dose interval.
The duration of IGF-1 levels induced above the estimated efficacious level after the first dose was determined. At the higher doses, the IGF-1 levels had not returned to baseline before the second dose. In these instances, the IGF-1 concentration was extrapolated to the efficacious level using the calculated terminal slopes. From this evaluation, a dose-dependent increase in duration of IGF-1 concentration above the efficacious level was evident.
Bone growth was used as an additional pharmacodynamic measure to calculate the PEG-^ahGH ED50. Tibias were collected from each animal at the end of the study and immersion fixed in 10% neutral-buffered formalin followed by radiography. There was a clear dose-dependent increase in tibial bone length for the PEG-^ahGH treated animals. Moreover, there was a dose sparing effect compared to the daily Genotropin treated animals. The amount of Genotropin administered over a 7-day interval is equivalent to 2.1 mg/kg of PEG-^ahGH given weekly (i.e., days 0 and 7). An induction of tibial bone length increase similar to Genotropin is shown for PEG-^ahGH at 0.42 to 1.0 mg/kg. This represents a ≧50% dose-sparing effect for PEG-^ahGH when compared to Genotropin.

[4] = Rat pharmacokinetics: PEG-ahGH plasma concentration in the rat disease model; type: in vivo
Protocol: The same plasma samples collected for IGF-1 concentration determination were also assayed for PEG-^ahGH concentration. […] The duration of PEG-^ahGH persistence in the circulation, as well as the overall PEG-^ahGH AUC, increased in a dose-dependent manner. […] The PEG-^ahGH exposure results support the dose-dependent efficacy shown above.
Plasma concentration versus time profiles for PEG-^ahGH administered subcutaneously at various doses in the rat disease model are shown in Example 34, above.

rat GHR ECD (L43R) = biological target: T2, rat GHR ECD (L43R) (Rattus norvegicus, UniProt P16310, L61R); test: Biacore analysis of binding of GH to GHR; conditions: rat GHR ECD (L43R) immobilized on a CM5 chip, bivalent analyte model
T2 construct: (GHR ECD, amino acids S29-T238) was cloned into pET20b vector; made in house
T2 sequence (P16310 47-256 L61R): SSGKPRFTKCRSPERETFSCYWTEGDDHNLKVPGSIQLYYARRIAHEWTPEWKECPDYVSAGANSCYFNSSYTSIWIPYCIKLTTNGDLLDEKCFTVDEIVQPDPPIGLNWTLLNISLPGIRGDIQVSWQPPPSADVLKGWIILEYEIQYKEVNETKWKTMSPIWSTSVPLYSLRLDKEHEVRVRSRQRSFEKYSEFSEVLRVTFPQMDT
Protocol: Cloning and purification of rat GH receptor The extracellular domain of rat GH receptor (GHR ECD, amino acids S29-T238) was cloned into pET20b vector (Novagen) between Nde I and Hind III sites in frame with C-terminal 6H is tag. A mutation of L43 to R was introduced to further approximate the human GH receptor binding site (Souza et al., Proc Natl Acad Sci USA. (1995) 92(4): 959-63). Recombinant protein was produced in BL21 (DE3) E. coli cells (Novagen) by induction with 0.4 mM IPTG at 30° C. for 4-5 hours. After lysing the cells, the pellet was washed four times by resuspending in a dounce with 30 mL of 50 mM Tris, pH 7.6, 100 mM NaCl, 1 mM EDTA, 1% Triton X-100, and twice with the same buffer without Triton X-100. […] Refolding was accomplished by means of passing an aliquot of the inclusion body solution through a S100 (Sigma) gel filtration column, equilibrated with 50 mM Tris, pH 7.8, 1 M L-arginine, 3.7 mM cystamine, 6.5 mM cysteamine. Fractions containing soluble protein were combined and dialyzed against 50 mM Tris, pH 7.6, 200 mM NaCl, 10% glycerol. The sample was briefly centrifuged to remove any precipitate and incubated with an aliquot of Talon resin (Clontech), according to manufacturer's instructions. After washing the resin with 20 volumes of dialysis buffer supplemented with 5 mM imidazole, protein was eluted with 120 mM imidazole in dialysis buffer. Finally, the sample was dialyzed overnight against 50 mM Tris, pH 7.6, 30 mM NaCl, 1 mM EDTA, 10% glycerol, centrifuged briefly to remove any precipitate, adjusted to 20% glycerol final concentration, aliquoted and stored at −80 C. Concentration of the protein was measured by OD(280) using calculated extinction coefficient of ε=65,700 M^−1*cm^−1.
Approximately 600-800 RUs of soluble GHR ECD was immobilized on a Biacore™ CM5 chip, using a standard amine-coupling procedure, as recommended by the manufacturer. […] See, e.g., Cunningham et al. J Mol. Biol. (1993) 234(3): 554-63 and Wells J A. Proc Natl Acad Sci USA (1996) 93(1): 1-6).
Various concentrations of wild type or mutant GH (0.1-300 nM) in HBS-EP buffer (Biacore™, Pharmacia) were injected over the GHR surface at a flow rate of 40 μl/min for 4-5 minutes, and dissociation was monitored for 15 minutes post-injection. The surface was regenerated by a 15 second pulse of 4.5M MgCl2. […] Reference cell with no receptor immobilized was used to subtract any buffer bulk effects and non-specific binding.
Kinetic binding data obtained from GH titration experiments was processed with BiaEvaluation 4.1 software (BIACORE™). […] Equilibrium dissociation constants (Kd) were calculated as ratios of individual rate constants (koff/kon).

[5] = On day 14, after 2 weekly s.c. doses
[6] = after the first dose, curve fitting
[7] = curve fitting of the AUC values from the first dose
[8] = curve fitting of the Cmax values from the first dose

Molecule: F92pAF/G120R: hGH with p-acetyl-phenylalanine substituted for F92 and a G120R substitution
EC50 [1]: > 200 µM
EC50 [2]: > 200 µM

Molecule: PEG-^ahGH: PEGylated hGH of SEQ ID NO:2, para-acetylphenylalanine at position 35 linked via an oxime bond to a linear 30 kDa PEG
bodyweight change on day 14 ([3]; 1.0 mg/kg on days 0 and 7): 27.02 (+/−3.97) %
bodyweight change on day 14 from day 0 ([3]; 2.1 mg/kg on days 0 and 7): 33.66 (+/−7.55) %
ED50, Duration of IGF-1 Above Efficacious Level ([3]; After single s.c. dose): 0.173 mg/kg
ED50, IGF-1 AUC Above Efficacious Level ([3]; After single s.c. dose): 0.909 mg/kg
ED50, IGF-1 Induction: IGF-1 Cmax ([3]; After single s.c. dose): 0.136 mg/kg
Range of Effect (Eo-Emax), Duration of IGF-1 Above Efficacious Level ([3]; After single s.c. dose): 0 to 8.84 days
Range of Effect (Eo-Emax), IGF-1 AUC Above Efficacious Level ([3]; After single s.c. dose, AUC above 162 ng/mL): 0-5,029.8 ng × hr/mL
ED50, Tibial Bone Length [3, 5]: 0.424 mg/kg
Range of Effect (Eo-Emax), Percent Bodyweight Change [3, 5]: 7.17-50.65%
Range of Effect (Eo-Emax), Tibial Bone Length [3, 5]: 30.52-33.67 mm
dose-sparing effect over Genotropin (percent bodyweight change) ([3]; PEG-ahGH 1.0 mg/kg on days 0 and 7 vs Genotropin 0.3 mg/kg/day): ~50%
dose-sparing effect when compared to Genotropin (tibial bone length) ([3]; PEG-ahGH 0.42 to 1.0 mg/kg weekly vs daily Genotropin equivalent to 2.1 mg/kg weekly): ≥ 50%
maximum duration of IGF-1 concentration above the efficacious level [3, 6]: 8.84 days
minimum duration of IGF-1 concentration above the efficacious level [3, 6]: 0 days
Emax IGF-1 AUC above efficacious level [3, 7]: 5,029.8 ng×hr/mL
Eo IGF-1 AUC above efficacious level [3, 7]: 0 ng·h/mL
maximum (Emax) IGF-1 Cmax [3, 8]: 1,136.2 ng/mL
minimum (Eo) IGF-1 Cmax [3, 8]: 136.7 ng/mL
maximum percent bodyweight change ([3]; day 14, curve fitting): 50.65%
minimum percent bodyweight change ([3]; day 14, curve fitting): 7.17%
plasma IGF-1 levels throughout the study ([3]; dosed weekly (days 0 and 7) with increasing dose, FIG. 28): robust, dose-dependent increase in IGF-1
plasma concentration (hGH ELISA) ([4]; hypophysectomized rats, PEG-ahGH s.c. on days 0 and 7, Genotropin daily): dose-dependent increase in PEG-^ahGH Cmax
apparent terminal half-life ([4]; in rat, subcutaneous): 7.05 (+/−0.47) hours

Second part, led by results:

EC50 [1]: > 200 µM
EC50 [2]: > 200 µM
Molecule: F92pAF/G120R-30KPEG: hGH with G120R and p-acetyl-phenylalanine at position 92 linked to 30 kDa PEG

kon (rat GHR ECD (L43R)): 33000 M⁻¹ s⁻¹
B1: rat GH WT: wild type rat growth hormone (protein)
chain: FPAMPLSSLFANAVLRAQHLHQLAADTYKEFERAYIPEGQRYSIQNAQAAFCFSETIPAPTGKEEAQQRTDMELLRFSLLLIQSWLGPVQFLSRIFTNSLMFGTSDRVYEKLKDLEEGIQALMQELEDGSPRIGQILKQTYDKFDANMRSDDALLKNYGLLSCFKKDLHKAETYLRVMKCRRFAESSCAF
STAT5 phosphorylation ([1]; IM-9 cells): neither rat growth hormone nor human prolactin resulted in detectable STAT5 phosphorylation
